Legend:
Format in all cases: in vivo
Amaranthus retroflexus [1] = assay: greenhouse post-emergence treatment, AMARE; details: for herbicidal activity against AMARE / pest or weed control at 500 g/ha: 0.500 kg/ha; for herbicidal activity against AMARE: scale 0 to 100; for pest or weed control at 500 g/ha / pest or weed control at 1000 g/ha: Amaranthus retroflexus, scale 0 to 100, read-out: herbicidal activity against AMARE; for pest or weed control at 1000 g/ha: 1.000 kg/ha
Source text: (§1) The seeds of the test plants were sown separately for each species. For the post-emergence treatment, the test plants were first grown to a height of 3 to 15 cm, depending on the plant habit, and only then treated with the active ingredients which had been suspended or emulsified in water. For this purpose, the test plants were either sown directly and grown in the same containers, or they were first grown separately as seedlings and transplanted into the test containers a few days prior to treatment. Depending on the species, the plants were kept at 10-25° C. or 20-35° C., respectively. The test period extended over 2 to 4 weeks. During this time, the plants were tended, and their response to the individual treatments was evaluated. Evaluation was carried out using a scale from 0 to 100. 100 means no emergence of the plants, or complete destruction of at least the aerial moieties, and 0 means no damage, or normal course of growth. A moderate herbicidal activity is given at values of at least 60, a good herbicidal activity is given at values of at least 70, and a very good herbicidal activity is given at values of at least 85. The plants used in the greenhouse experiments were of the following species: [table]

Apera spica-venti [2] = assay: greenhouse post-emergence treatment, APESV; details: 0.500 kg/ha, scale 0 to 100
Source text: as §1

Setaria faberi [3] = assay: greenhouse post-emergence treatment, SETFA; details: scale 0 to 100
Source text: as §1

Alopecurus myosuroides = assay: greenhouse pre-emergence treatment, ALOMY; details: 0.500 kg/ha, scale 0 to 100
Source text: (§2) The seeds of the test plants were sown separately for each species. For the pre-emergence treatment, the active ingredients, which had been suspended or emulsified in water, were applied directly after sowing by means of finely distributing nozzles. The containers were irrigated gently to promote germination and growth and subsequently covered with transparent plastic hoods until the plants had rooted. This cover caused uniform germination of the test plants, unless this had been impaired by the active ingredients. Depending on the species, the plants were kept at 10-25° C. or 20-35° C., respectively. The test period extended over 2 to 4 weeks. During this time, the plants were tended, and their response to the individual treatments was evaluated. Evaluation was carried out using a scale from 0 to 100. 100 means no emergence of the plants, or complete destruction of at least the aerial moieties, and 0 means no damage, or normal course of growth. A moderate herbicidal activity is given at values of at least 60, a good herbicidal activity is given at values of at least 70, and a very good herbicidal activity is given at values of at least 85. The plants used in the greenhouse experiments were of the following species: [table]

Amaranthus retroflexus [4] = assay: greenhouse pre-emergence treatment, AMARE; details: 0.500 kg/ha, scale 0 to 100
Source text: as §2

Apera spica-venti [5] = assay: greenhouse pre-emergence treatment, APESV; details: 0.500 kg/ha, scale 0 to 100
Source text: as §2

Setaria faberi [6] = assay: greenhouse pre-emergence treatment, SETFA; details: 0.500 kg/ha, scale 0 to 100
Source text: as §2

Abutilon theophrasti [7] = assay: greenhouse pre-emergence treatment, ABUTH; details: 0.500 kg/ha, scale 0 to 100
Source text: as §2

Abutilon theophrasti [8] = assay: greenhouse post-emergence treatment, ABUTH; details: 1.000 kg/ha, scale 0 to 100
Source text: as §1

Row | SMILES | herbicidal activity against AMARE (Amaranthus retroflexus [1]) | herbicidal activity against APESV (Apera spica-venti [2]) | herbicidal activity against SETFA (Setaria faberi [3]; 0.500 kg/ha) | herbicidal activity against ALOMY (Alopecurus myosuroides) | herbicidal activity against AMARE (Amaranthus retroflexus [4]) | herbicidal activity against APESV (Apera spica-venti [5]) | herbicidal activity against SETFA (Setaria faberi [6]) | herbicidal activity against ABUTH (Abutilon theophrasti [7]) | pest or weed control at 500 g/ha (Amaranthus retroflexus [1]) [%] | herbicidal activity against ABUTH (Abutilon theophrasti [8]) | pest or weed control at 1000 g/ha (Amaranthus retroflexus [1]) [%] | herbicidal activity against SETFA (Setaria faberi [3]; 1.000 kg/ha)
1 | COC[C@H]1CCCN1c1nc(N)nc(Nc2c(F)c(F)cc(F)c2F)n1 [Example 26] | very good (a very good herbicidal activity is given at values of at least 85) | very good (a very good herbicidal activity is given at values of at least 85) | very good (a very good herbicidal activity is given at values of at least 85) | very good (a very good herbicidal activity is given at values of at least 85) | very good (a very good herbicidal activity is given at values of at least 85) | very good (a very good herbicidal activity is given at values of at least 85) | very good (a very good herbicidal activity is given at values of at least 85) | – | – | – | – | –
2 | CC1CCCN1c1nc(N)nc(Nc2c(F)c(F)c(F)c(F)c2F)n1 (stereo not shown) [Example 20] | – | – | – | – | very good (a very good herbicidal activity is given at values of at least 85) | very good (a very good herbicidal activity is given at values of at least 85) | very good (a very good herbicidal activity is given at values of at least 85) | – | – | – | – | –
3 | CC1CCC(C)N1c1nc(N)nc(Nc2c(F)c(F)c(F)c(F)c2F)n1 (stereo not shown) [Example 17] | – | – | – | – | very good (a very good herbicidal activity is given at values of at least 85) | very good (a very good herbicidal activity is given at values of at least 85) | very good (a very good herbicidal activity is given at values of at least 85) | – | – | – | – | –
4 | Nc1nc(Nc2c(F)c(F)c(F)c(F)c2F)nc(N2CCOCC2)n1 [Example 23] | – | – | – | – | very good (a very good herbicidal activity is given at values of at least 85) | very good (a very good herbicidal activity is given at values of at least 85) | – | very good (a very good herbicidal activity is given at values of at least 85) | – | – | – | –
5 | CCN(CC)c1nc(N)nc(Nc2c(F)c(F)cc(F)c2F)n1 [Example 36] | – | very good (a very good herbicidal activity is given at values of at least 85) | – | – | good to very good | good to very good | – | – | ≥ 85 | – | – | –
6 | COC[C@H]1CCCN1c1nc(N)nc(Nc2c(F)c(F)c(F)c(F)c2F)n1 [Example 25] | very good (a very good herbicidal activity is given at values of at least 85) | very good (a very good herbicidal activity is given at values of at least 85) | very good (a very good herbicidal activity is given at values of at least 85) | good to very good | good to very good | good to very good | good to very good | – | – | – | – | –
7 | COC[C@@H]1CCCN1c1nc(N)nc(Nc2c(F)c(F)c(F)c(F)c2F)n1 [Example 29] | very good (a very good herbicidal activity is given at values of at least 85) | very good (a very good herbicidal activity is given at values of at least 85) | – | – | very good (a very good herbicidal activity is given at values of at least 85) | very good (a very good herbicidal activity is given at values of at least 85) | – | – | – | – | – | –
8 | COCC1CCCN1c1nc(N)nc(Nc2c(F)c(F)c(F)c(F)c2F)n1 (stereo not shown) [Example 31] | – | very good (a very good herbicidal activity is given at values of at least 85) | – | – | good to very good | good to very good | – | – | – | – | – | –
9 | CN(Cc1ccccc1)c1nc(N)nc(Nc2c(F)c(F)c(F)c(F)c2F)n1 [Example 10] | – | – | – | – | – | – | – | – | – | very good (a very good herbicidal activity is given at values of at least 85) | ≥ 85 | –
10 | COCC1CCCN1c1nc(N)nc(Nc2c(F)c(F)cc(F)c2F)n1 (stereo not shown) [Example 32] | – | very good (a very good herbicidal activity is given at values of at least 85) | very good (a very good herbicidal activity is given at values of at least 85) | good to very good | good to very good | good to very good | good to very good | – | ≥ 85 | – | – | –
11 | CCN(C)c1nc(N)nc(Nc2c(F)c(F)cc(F)c2F)n1 [Example 22] | – | – | – | very good (a very good herbicidal activity is given at values of at least 85) | very good (a very good herbicidal activity is given at values of at least 85) | very good (a very good herbicidal activity is given at values of at least 85) | – | – | – | – | – | –
12 | CC1CCCN1c1nc(N)nc(Nc2c(F)c(F)cc(F)c2F)n1 (stereo not shown) [Example 21] | – | – | – | very good (a very good herbicidal activity is given at values of at least 85) | very good (a very good herbicidal activity is given at values of at least 85) | – | very good (a very good herbicidal activity is given at values of at least 85) | – | – | – | – | –
13 | COC[C@@H]1CCCN1c1nc(N)nc(Nc2c(F)c(F)cc(F)c2F)n1 [Example 30] | very good (a very good herbicidal activity is given at values of at least 85) | very good (a very good herbicidal activity is given at values of at least 85) | – | – | very good (a very good herbicidal activity is given at values of at least 85) | very good (a very good herbicidal activity is given at values of at least 85) | – | – | – | – | – | –
14 | Nc1nc(Nc2c(F)c(F)c(F)c(F)c2F)nc(N2CCCC2)n1 [Example 6] | – | – | – | very good (a very good herbicidal activity is given at values of at least 85) | – | very good (a very good herbicidal activity is given at values of at least 85) | very good (a very good herbicidal activity is given at values of at least 85) | – | – | very good (a very good herbicidal activity is given at values of at least 85) | ≥ 85 | very good (a very good herbicidal activity is given at values of at least 85)
15 | Nc1nc(Nc2c(F)c(F)c(F)c(F)c2F)nc(N2CCCCCC2)n1 [Example 7] | – | – | – | good to very good | – | good to very good | good to very good | – | – | very good (a very good herbicidal activity is given at values of at least 85) | ≥ 85 | –

Reference: patent US20170101383A1, “DIAMINOTRIAZINE DERIVATIVES AS HERBICIDES” (BASF SE, priority 2014, published 2017)
